# Data as given in article PMC11938014, “Development and Application of Small Molecule–Peptide Conjugates as Cathepsin K-Specific Covalent Irreversible Inhibitors in Human Osteoclast and Lung Cancer” (JACS Au, 2025).
# Key:
# human osteoclasts [1] = assay: TRAP staining, osteoclast number on bone slices; format: cell-based; conditions: inhibitor 1 or 5 μM
# Description: (§1) Figure 6 CTSK inhibition in human osteoclasts. (a) Scheme of the process of maturation of osteoclasts (OCs) derived from human monocytes in the presence of RANKL and M-CSF. (b) Representative pictures of bone resorption after incubation with human OCs treated with vehicle or inhibitors for 10–14 days. Bone resorption was observed by a toluidine blue stain. Increased staining indicates a higher number of resorption pits and greater bone resorption. (c) Quantitative analysis of pit formation in bone slices after incubation with OC treated with GD20 or ODN (1, 5 μM) relative to vehicle treated slices. […] (e) Quantification of osteoclasts number on bone slices after inhibitor treatment, detected by TRAP staining. […] The activity of CTSK in the cells was detected by 2 h labeling with a pan-cathepsin activity-based probe, GB123, followed by a fluorescence scan of the SDS-PAGE detecting CTSK attached to the probe; the red arrow points to the bands of CTSK (above 25 kDa). […]
# Blood was taken in an aseptic nontouch technique from consented human volunteers that were bled from the median cubital vein using a 21G needle, by the Declaration of Helsinki. […] The whole bone slice was analyzed by generating a panoramic view of the slice using stitching of images taken with an 20× magnification. […] And again, bone slice slices were imaged as was described before and counted using ImageJ software. […]
# human osteoclasts [2] = assay: Bone resorption assay, pit formation on bone slices (toluidine blue); format: cell-based; conditions: Osteoclast, compared to vehicle-treated OC
# Description: The selective blockage of cellular CTSK activity allowed us to assess the effect of the inhibitors on bone resorption induced by osteoclasts (OCs) as an important step toward therapeutic application in osteoporosis, bone metastases, and other diseases associated with excessive bone resorption. Human OCs were derived from CD14+ monocytes that were extracted from healthy donors’ blood and treated with M-CSF and RANKL, as described in Abdallah et al.[46] The OC were grown on cortical bone slices over 14 days in the presence of the CTSK inhibitors to evaluate the impact of inhibitors on bone resorption; see scheme (Figure 6a).
# as §1, with “(b) Representative pictures of bone resorption after incubation with human OCs treated with vehicle or inhibitors for 10–14 days. Bone resorption was observed by a toluidine blue stain. Increased staining indicates a higher number of resorption pits and greater bone resorption.” left out
# CTSL = target: T1, CTSL (Homo sapiens, UniProt P07711); assay: Kinetic evaluation of recombinant cathepsin inhibition, fluorogenic substrate Z-RR-AMC; format: biochemical
# T1 construct: made in house
# Description: Cathepsin (0.4 nM, CatK) or 5 nM (CatS, CatB, and CatL) were each mixed with inhibitors before adding the fluorogenic substrate. The proteases were then reacted with their substrates, Z-RR-AMC (CatL) or Z-FR-AMC (CatS, CatB, and CatK), for 30 min at 37 °C in the phosphate buffer (100 mM Na2HPO4/NaH2PO4, 50 mM NaCl, 5 mM DTT, 0.1% PEG-6000, at pH 6). Reactions were done in 96-well black flat-bottom microplates (Greiner, Germany); fluorescence (Ex/Em 370 and 460 nm) was measured by a Tecan INFINITE M1000 pro plate reader (Tecan, Switzerland) in the presence of inhibitors or vehicle. For irreversible inhibitors, reaction data were analyzed by using the one-phase association formula in GraphPad Prism 9 software: Y = Y0 + (plateau – Y0) × (1 – exp(−K × X)), where Y0 and Y denote the fluorescence signals at times 0 and t, respectively, K represents the observed reaction rate kobs, and X signifies the […]. The inactivation rates at each inhibitor concentration were determined by subtracting the inactivation observed in the control sample: kobs – kctrl. The maximum inactivation rate (kinact) was derived as the asymptote from the equation Y = kinact × X/(Ki^app + X), where X represents the inhibitor concentration, Y is the observed inactivation rate for each X, and Ki^app is the apparent inhibition constant. Ki values were derived from IC50 or Ki^app using the equations Ki = Ki^app/(1 + […]) and IC50 = E0/2 + Ki^app, where Km represents the Michaelis–Menten constant, S denotes substrate concentration, and E0 indicates cathepsin concentration. The maximum inhibitor dose in the experiment was 50 μM. Measurements were conducted in multiple independent duplicates. Average values are listed.
# T1 sequence (P07711 114-333): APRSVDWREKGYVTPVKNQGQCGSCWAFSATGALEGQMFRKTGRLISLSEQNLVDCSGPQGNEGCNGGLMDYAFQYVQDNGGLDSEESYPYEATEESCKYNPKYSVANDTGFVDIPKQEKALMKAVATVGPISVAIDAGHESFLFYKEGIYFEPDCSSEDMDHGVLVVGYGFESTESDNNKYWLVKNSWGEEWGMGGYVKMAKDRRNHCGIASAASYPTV
Ki (CTSL; maximum inhibitor dose 50 μM),"type of inhibition, CTSL (CTSL)",Ki (CTSL; irreversible inhibitor),"kinact (CTSL; read-out: kinact (at 50 μM), CTSL)",SMILES,osteoclast numbers on bone slices (TRAP) (human osteoclasts [1]),inhibition at 5 µM (human osteoclasts [2])
–,–,–,–,"CC(C)(F)C[C@H](N[C@@H](c1ccc(-c2ccc(S(C)(=O)=O)cc2)cc1)C(F)(F)F)C(=O)NC1(C#N)CC1 [ODN, odanacatib, reference compound]",increase,93 ± 1.45%
> 50 µM,–,–,–,CC(C)C[C@H](N[C@@H](c1ccc(-c2ccc(S(C)(=O)=O)cc2)cc1)C(F)(F)F)C(=O)NCC(=O)COC(=O)[C@@H]1CCCN1C(=O)[C@H](CC(C)C)NC(=O)OCC1c2ccccc2-c2ccccc21 [GD20],no significant alterations,94 ± 1.57%
–,irreversible,> 50 µM,0.0045 s⁻¹,CC(C)C[C@H](N[C@@H](c1ccc(-c2ccc(S(C)(=O)=O)cc2)cc1)C(F)(F)F)C(=O)NCC(=O)COC(=O)[C@@H]1CCCN1C(=O)[C@H](CCC(N)=O)NC(=O)OCC1c2ccccc2-c2ccccc21 [GD38],–,–
